Assay results reported in patent publication US20060281719A1, “Oestrogen-17-sulphamates as inhibitors of steroid sulphatase” (priority 2000, published 2006).
Where “and” joins values, the source holds several entries; their conditions need not be identical. Equal entries are not always repeated.

Assays:
Plate assay % inhibition = type: cell-based; conditions: -ve % means stimulation
[1] = target: T1, oestrone sulphatase (E1-STS) (Homo sapiens, UniProt P08842); assay: Inhibition of steroid sulphatase activity in placental microsomes; type: biochemical; set-up: from tissue; host or cells: human term placenta (microsomal preparation)
T1 sequence (P08842 22-583): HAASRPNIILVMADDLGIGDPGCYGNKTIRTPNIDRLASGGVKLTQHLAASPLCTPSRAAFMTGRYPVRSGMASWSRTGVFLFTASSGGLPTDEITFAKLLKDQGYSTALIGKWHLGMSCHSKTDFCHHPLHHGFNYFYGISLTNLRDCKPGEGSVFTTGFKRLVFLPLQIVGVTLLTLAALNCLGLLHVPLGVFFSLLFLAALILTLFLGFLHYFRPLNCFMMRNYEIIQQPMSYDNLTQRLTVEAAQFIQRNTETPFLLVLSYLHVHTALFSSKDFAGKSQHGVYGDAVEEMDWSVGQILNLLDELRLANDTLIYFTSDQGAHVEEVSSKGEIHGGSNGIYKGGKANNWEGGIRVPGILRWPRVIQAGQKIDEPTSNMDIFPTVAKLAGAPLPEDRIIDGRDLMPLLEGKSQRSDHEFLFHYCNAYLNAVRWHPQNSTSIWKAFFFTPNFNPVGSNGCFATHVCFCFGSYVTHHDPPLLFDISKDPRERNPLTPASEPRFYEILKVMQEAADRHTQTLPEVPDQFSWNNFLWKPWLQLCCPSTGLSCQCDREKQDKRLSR

[2] = target: T1, oestrone sulphatase (E1-STS); assay: Inhibition of steroid sulphatase (E1-STS) activity in intact MCF-7 breast cancer cells; type: cell-based

Structure (SMILES)	% Inhibition of E1-STS activity in placental microsomes ([1]; 10 μM)	% Inhibition of E1-STS activity in placental microsomes ([1]; 25 µM)	% Inhibition of E1-STS activity in placental microsomes ([1]; 50 µM)	% Inhibition of E1-STS activity in placental microsomes ([1]; 100 µM)	% Inhibition of E1-STS activity in MCF-7 cells ([2]; 0.1 μM)	% Inhibition of E1-STS activity in MCF-7 cells ([2]; 1 μM)	% Inhibition of E1-STS activity in MCF-7 cells ([2]; 10 μM)	Plate assay % inhibition (Plate assay % inhibition; 1 μM)	Plate assay % inhibition (Plate assay % inhibition; 0.1 μM)	Plate assay % inhibition (Plate assay % inhibition; 10 μM)
CCCCCN(CCCCC)S(=O)(=O)O[C@@H]1CC[C@H]2[C@@H]3CCc4cc(O)ccc4[C@H]3CC[C@]12C [BLE00082, 3-Hydroxyestra-1,3,5(10)-trien-17α-O—(N,N-dipentyl)sulfamate]	–	–	–	–	–	–	–	24%	–	–
CCCCCN(CCCCC)S(=O)(=O)O[C@@H]1CC[C@H]2[C@@H]3CCc4cc(OS(N)(=O)=O)ccc4[C@H]3CC[C@]12C [BLE00083B, 3-O-Sulfamoyl-estra-1,3,5(10)-trien-17α-O—(N,N-dipentyl)sulfamate]	–	–	–	–	–	–	–	–	8%	24%
C[C@]12CC[C@@H]3c4ccc(OS(N)(=O)=O)cc4CC[C@H]3[C@@H]1CC[C@@H]2O [BLE00084]	–	–	–	–	–	–	–	–	4%	23%
NS(=O)(=O)Oc1ccc(C(=O)c2ccccc2)cc1 [Compound 6, Benzophenone-4-O-sulphamate]	76.73 ± 2.47%	–	88.04 ± 0.82%	92.28 ± 0.41%	<10%	33.04 ± 10.68%	87.89 ± 2.02%	–	–	–
NS(=O)(=O)Oc1ccc(C=CC(=O)c2ccccc2)cc1 [Compound 7, Chalcone-4-O-sulphamate]	47.41 ± 0.05%	–	75.11 ± 1.37%	82.77 ± 0.23%	<10%	24.34 ± 11.89%	83.81 ± 0.17%	–	–	–
NS(=O)(=O)Oc1ccc(C(=O)C=Cc2ccccc2)cc1 [Compound 8, Chalcone-4′-O-sulphamate]	71.27 ± 2.42%	–	75.79 ± 2.06%	80.51 ± 1.87%	<10%	33.04 ± 10.68%	87.89 ± 2.02%	–	–	–
NS(=O)(=O)Oc1ccc2oc3ccccc3c2c1 [Compound 9, Dibenzofuran-2-O-sulphamate]	28.8 ± 3.2%	48.5 ± 0.5%	62.0 ± 2.8%	75.8 ± 1.2%	21.3 ± 1.5%	67.9 ± 1.9%	97.1 ± 0.8%	–	–	–
NS(=O)(=O)Oc1ccc2c(c1)C(=O)c1ccc(OS(N)(=O)=O)cc1C2=O [Compound 10, Anthraquinone-2,6-O,O-bis-sulphamate]	–	95.7 ± 0.5%	97.2 ± 0.3%	97.7 ± 0.1%	93% and 93.1 ± 2.1%	98.6 ± 1.0%	99.1 ± 0.1%	–	–	–
NS(=O)(=O)Oc1ccc2c(c1)C(=O)c1ccc(O)cc1C2=O [Compound 11, 2-hydroxyanthraquinone-6-O-sulphamate]	86% and 86.1 ± 0.5%	91.2 ± 0.2%	94.4 ± 0.5%	95.6 ± 0.1%	99.3 ± 0.6%	94.5 ± 1.6%	90.1 ± 0.8%	–	–	–
Oc1ccc(C(O)(c2ccc(O)cc2)C2CCCCC2)cc1 [Compound 24, 1-Cyclohexyl-1,1-di-(4-hydroxyphenyl)methanol]	<10%	20.0 ± 1.6%	33.4 ± 2.2%	44.7 ± 0.4%	–	–	–	–	–	–
NS(=O)(=O)Oc1cccc(C(=O)c2cccc(OS(N)(=O)=O)c2)c1 [Compound 28, Benzophenone-3,3′-O,O-bis-sulphamate]	51.1 ± 3.7%	73.6 ± 1.9%	84.1 ± 1.9%	–	75.3 ± 0.8%	98.4 ± 0.3%	99.9 ± 0.1%	–	–	–
NS(=O)(=O)Oc1cccc(C(=O)c2cccc(O)c2)c1 [Compound 29, 3′-hydroxybenzophenone-3-O-sulphamate]	18.8 ± 1.3%	30.7 ± 3.4%	43.7 ± 2.6%	58.3 ± 0.1%	<10%	30.7 ± 5.6%	87.2 ± 1.8%	–	–	–

More lines, main results first:

% Inhibition of E1-STS activity in placental microsomes ([1]; 10 μM)	% Inhibition of E1-STS activity in placental microsomes ([1]; 25 µM)	% Inhibition of E1-STS activity in placental microsomes ([1]; 50 µM)	% Inhibition of E1-STS activity in placental microsomes ([1]; 100 µM)	% Inhibition of E1-STS activity in MCF-7 cells ([2]; 0.1 μM)	% Inhibition of E1-STS activity in MCF-7 cells ([2]; 1 μM)	% Inhibition of E1-STS activity in MCF-7 cells ([2]; 10 μM)	Structure (SMILES)	Plate assay % inhibition (Plate assay % inhibition; 1 μM)	Plate assay % inhibition (Plate assay % inhibition; 0.1 μM)	Plate assay % inhibition (Plate assay % inhibition; 10 μM)
62.1 ± 1.4%	82.0 ± 0.4%	88.1 ± 0.3%	92.8 ± 0.2%	34.8 ± 1.7%	83.8 ± 0.5%	96.7 ± 1.0%	NS(=O)(=O)Oc1ccc(C(=O)c2ccc(O)cc2)cc1 [Compound 5, 4′-Hydroxybenzophenone-4-O-sulphamate]	–	–	–
65.0 ± 1.8%	85.5 ± 0.6%	92.3 ± 0.3%	95.4 ± 0.2%	<10%	50.6 ± 3.3%	87.4 ± 2.7%	NS(=O)(=O)Oc1ccc(S(=O)(=O)c2ccc(OS(N)(=O)=O)cc2)cc1 [Compound 14, Sulphonyldiphenyl-4,4′-O,O-bis-sulphamate]	–	–	–
65.3 ± 0.9%	79.4 ± 0.9%	87.4 ± 0.9%	91.9 ± 0.4%	67.2 ± 1.1%	96.6 ± 1.4%	99.7 ± 0.1%	NS(=O)(=O)Oc1ccc(Sc2ccc(OS(N)(=O)=O)cc2)cc1 [Compound 15, Thiodiphenyl-4,4′O,O-bis-sulphamate]	–	–	–
33.1 ± 1.7%	49.5 ± 0.1%	64.7 ± 0.9%	76.8 ± 0.4%	26.6 ± 4.3%	83.9 ± 1.2%	97.7 ± 0.4%	NS(=O)(=O)Oc1ccc(Sc2ccc(O)cc2)cc1 [Compound 16, 4′-hydroxy-thiodiphenyl-4-O-sulphamate]	–	–	–
22.1 ± 0.6%	29.4 ± 0.1%	38.7 ± 4.9%	53.1 ± 0.1%	22.2 ± 0.1%	50.01 ± 0.1%	93.3 ± 0.1%	NS(=O)(=O)Oc1ccc(Cc2ccc(OS(N)(=O)=O)cc2)cc1 [Compound 18, 4,4′-Bis-sulphamoyloxydiphenylmethane]	–	–	–
11.7 ± 2.3%	17.3 ± 2.7%	22.8 ± 1.4%	34.3 ± 1.0%	<10%	39.3 ± 0.1%	92.4 ± 0.1%	NS(=O)(=O)Oc1ccc(Cc2ccc(O)cc2)cc1 [Compound 19, 4-sulphamoyloxy-4′ hydroxydiphenylmethane]	–	–	–
31.4 ± 1.6%	41.9 ± 2.3%	62.5 ± 7.5%	69.0 ± 4.8%	16.1 ± 4.0%	32.7 ± 2.3%	90.1 ± 0.7%	NS(=O)(=O)Oc1ccc(C23CC4CC(C2)CC(c2ccc(OS(N)(=O)=O)cc2)(C4)C3)cc1 [Compound 20, (1,3-Adamantanediyl)diphenyl-4,4′-O,O-bis-sulphamate]	–	–	–
<10%	15.9 ± 0.9%	32.5 ± 1.1%	60.1 ± 3.4%	<10%	16.3 ± 1.5%	64.1 ± 1.1%	NS(=O)(=O)Oc1ccc(C23CC4CC(CC(c5ccc(O)cc5)(C4)C2)C3)cc1 [Compound 21, 4′-hydroxy-(1,3-adamantanediyl)diphenyl-4-O-sulphamate]	–	–	–
